Assay results reported in patent US20130245064A1, “NOVEL NEUROTRYPSIN INHIBITORS” (priority 2010, published 2013).

Key:
human neurotrypsin = target: T1, human neurotrypsin (Homo sapiens, UniProt P56730); test: Determination of IC50 for human neurotrypsin; assay type: biochemical; conditions: table of all 14 examples; read-out: Neurotrypsin IC50
T1 sequence (P56730 21-875): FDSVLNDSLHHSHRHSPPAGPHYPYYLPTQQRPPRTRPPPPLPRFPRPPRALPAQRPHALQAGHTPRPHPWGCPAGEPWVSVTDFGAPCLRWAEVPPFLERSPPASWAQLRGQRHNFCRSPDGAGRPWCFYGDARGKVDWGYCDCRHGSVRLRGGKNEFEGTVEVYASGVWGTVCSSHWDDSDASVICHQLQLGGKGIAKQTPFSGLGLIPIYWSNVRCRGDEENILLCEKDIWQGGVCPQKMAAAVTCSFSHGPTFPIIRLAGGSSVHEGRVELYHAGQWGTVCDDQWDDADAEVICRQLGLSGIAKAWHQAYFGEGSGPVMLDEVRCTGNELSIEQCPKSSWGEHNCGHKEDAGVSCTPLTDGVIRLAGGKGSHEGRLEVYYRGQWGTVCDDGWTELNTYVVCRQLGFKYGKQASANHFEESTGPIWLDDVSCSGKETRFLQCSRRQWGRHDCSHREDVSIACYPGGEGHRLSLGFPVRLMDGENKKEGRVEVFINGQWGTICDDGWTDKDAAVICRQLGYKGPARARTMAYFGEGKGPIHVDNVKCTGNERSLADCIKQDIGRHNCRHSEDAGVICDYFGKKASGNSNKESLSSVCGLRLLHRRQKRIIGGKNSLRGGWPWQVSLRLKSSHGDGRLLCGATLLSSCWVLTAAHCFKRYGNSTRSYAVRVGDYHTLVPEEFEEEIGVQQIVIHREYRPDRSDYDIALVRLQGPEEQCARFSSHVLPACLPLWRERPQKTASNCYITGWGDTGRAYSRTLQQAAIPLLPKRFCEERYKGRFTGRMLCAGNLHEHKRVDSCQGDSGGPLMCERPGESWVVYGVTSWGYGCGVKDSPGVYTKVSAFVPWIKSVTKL
Description: Determination of IC50 for Human Neurotrypsin
Assessment of the potency of compounds of examples 1-14 in inhibiting the enzymatic activity of human neurotrypsin was performed according to the method described in patent application […]

Row | Compound | IC50 (human neurotrypsin) [µM] | melting point [°C]
1 | 1-(2-Hydroxy-4-(5,6-dichloro-1H-benzo[d]imidazol-2-yl)-benzoyl)-4-benzylpiperidine [Example 10] | 18.3 | –
2 | CC(C)CN(CC(C)C)C(=O)c1ccc(NC(=O)c2ccc(-c3nc4cc(Cl)c(Cl)cc4[nH]3)cc2)cc1O [Example 13, N,N-Diisobutyl-2-hydroxy-4-((5,6-dichloro-1H-benzo[d]imidazol-2-yl)-benzamido)benzamide] | 55.1 | –
3 | O=C(Nc1ccc(Cl)cc1)c1ccc(NC(=O)c2sc3ccccc3c2Cl)cc1O [Example 4, N-(4-Chlorophenyl)-4-[(3-chlorobenzo[b]-thiophene-2-carbonyl)amino]-2-hydroxybenzamide] | 55.5 | > 220
4 | CCCCc1ccc(NC(=O)c2ccc(NC(=O)c3ccc(-c4nc5cc(Cl)c(Cl)cc5[nH]4)cc3)cc2O)cc1 [Example 14, N-(4-Butylphenyl)-4-(4-(5,6-dichloro-1H-benzo[d]imidazol-2-yl)-benzamido)-2-hydroxybenzamide] | 1.7 | > 220
5 | O=C(Nc1ccc(C(=O)Nc2ccc(Cl)cc2F)c(O)c1)c1ccc(-c2nc3cc(Cl)c(Cl)cc3[nH]2)cc1 [Example 9, N-(2-Fluoro-4-chloro-phenyl)-4-(4-(5,6-di-chloro-1H-benzo[d]imidazol-2-yl)-benzamido)-2-hydroxybenzamide] | 1.9 | > 220
6 | O=C(Nc1ccc(C(=O)Nc2ccc(Cl)cc2)c(O)c1)c1ccc(-c2ccc(F)cc2)s1 [Example 6] | 3.4 | > 220
7 | O=C(Nc1ccc(C(=O)Nc2ccc(Cl)cc2)c(O)c1)c1ccc2cc(Cl)c(Cl)cc2n1 [Example 7, N-(4-Chlorophenyl)-4-(6,7-dichloroquinoline-2-carbonyl)amino-2-hydroxybenzamide] | 26.7 | > 220
8 | O=C(Nc1ccc(C(=O)Nc2ccc(Cl)cc2)c(O)c1)c1ccc(-c2ccc(F)cc2)cc1 [Example 3] | 7.6 | > 220
9 | O=C(Nc1ccc(C(=O)Nc2ccc(F)cc2F)c(O)c1)c1ccc(-c2nc3cc(Cl)c(Cl)cc3[nH]2)cc1 [Example 11, N-(2,4-Difluorophenyl)-4-(4-(5,6-dichloro-1H-benzo[d]imidazol-2-yl)-benzamido)-2-hydroxybenzamide] | 1.1 | > 220
10 | O=C(Nc1ccccc1F)c1ccc(NC(=O)c2[nH]c3ccc(Cl)cc3c2-c2ccccc2)cc1O [Example 2, N-(2-Fluorophenyl)-4-(5-chloro-3-phenyl-indole-2-carbonyl)amino-2-hydroxybenzamide] | 32.8 | > 220
11 | 1-(2-Hydroxy-4-(5,6-dichloro-1H-benzo[d]imidazol-2-yl)-benzoyl)-4-phenoxypiperidine [Example 12] | 1.5 | –
12 | O=C(Nc1ccc(Cl)cc1)c1ccc(NC(=O)c2[nH]c3ccc(Cl)cc3c2-c2ccccc2)cc1O [Example 8, N-(4-Chlorophenyl)-4-(5-chloro-3-phenylindole-2-carbonyl)amino-2-hydroxybenzamide] | 10.8 | > 220
13 | O=C(Nc1ccc(C(=O)Nc2ccc(Cl)cc2)c(O)c1)c1ccc(Oc2ccc(Cl)c(Cl)c2)cc1 [Example 5] | 13.9 | > 220
